The assay deals with P388 leukemia ip, CD2F1 mice, survival T/C. As to the kind of experiment: NCI In Vivo Anticancer Drug Screen. Data for tumor model P388 Leukemia (intraperitoneal) in CD2F1 (CDF1) mice. Particulars: endpoint: median survival time, higher = longer survival. In outline: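 Mice carrying the transplanted tumor received test compound or vehicle. Survival was recorded in each group, and the value is the treated-group measurement divided by that of the vehicle-treated control group.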

[1] abbreviates: dose: 100.0 mg/kg/injection, schedule: Q01DX005 (ip), vehicle: saline with Tween-80.
[2] abbreviates: dose: 200.0 mg/kg/injection, schedule: Q01DX005 (ip), vehicle: saline with Tween-80.
[3] abbreviates: dose: 50.0 mg/kg/injection, schedule: Q01DX009 (ip), vehicle: saline with Tween-80.
Setting [4] is: dose: 200.0 mg/kg/injection, schedule: Q01DX009 (ip), vehicle: saline with Tween-80.
Where [5] appears, read: dose: 60.0 mg/kg/injection, schedule: Q01DX005 (ip), vehicle: saline with Tween-80.
The mark [6] stands for this setting: dose: 120.0 mg/kg/injection, schedule: Q01DX005 (ip), vehicle: saline with Tween-80.
Where [7] appears, read: dose: 240.0 mg/kg/injection, schedule: Q01DX005 (ip), vehicle: saline with Tween-80.

Where “and” joins values, the source holds several entries; their conditions need not be identical. Identical values can stand only once. Toxic doses and inconclusive results are not listed.

For the molecule `COC(=O)c1cc(=O)nc(NNC(C)=O)s1`, the T/C was 103 % of control (dose: 50.0 mg/kg/injection, schedule: Q01DX005 (ip), vehicle: Klucel (hydroxypropylcellulose) (HPC)); 96 % of control (dose: 100.0 mg/kg/injection, schedule: Q01DX005 (ip), vehicle: Klucel (hydroxypropylcellulose) (HPC)); 106 % of control (dose: 200.0 mg/kg/injection, schedule: Q01DX005 (ip), vehicle: Klucel (hydroxypropylcellulose) (HPC)).
Turning to `N#CNc1nnnn1-c1ccc(-n2nnnc2NC#N)cc1` (tested in a mixture with another compound), the T/C by setting is: (dose: 100.0 mg/kg/injection, schedule: Q04DX003 (ip), vehicle: Klucel (hydroxypropylcellulose) (HPC)) 92 % of control; (dose: 200.0 mg/kg/injection, schedule: Q04DX003 (ip), vehicle: Klucel (hydroxypropylcellulose) (HPC)) 91 % of control; (dose: 400.0 mg/kg/injection, schedule: Q04DX003 (ip), vehicle: Klucel (hydroxypropylcellulose) (HPC)) 90 % of control.
For the molecule `CCCCCCCCCCCCn1c2nc(=O)[nH]c(=O)c-2nc2ccccc21`, the T/C was 97 % of control (dose: 3.12 mg/kg/injection, schedule: Q01DX005 (ip), vehicle: saline with Tween-80); 97 % of control (dose: 6.25 mg/kg/injection, schedule: Q01DX005 (ip), vehicle: saline with Tween-80); 90 % of control (dose: 12.5 mg/kg/injection, schedule: Q01DX005 (ip), vehicle: saline with Tween-80); 87 % of control under setting [1]; 91 % of control under setting [2].
As to `NC(CCCCNCC(N)C(=O)O)C(=O)O` (stereo not drawn), the T/C is, setting by setting: (dose: 50.0 mg/kg/injection, schedule: Q01DX009 (ip), vehicle: saline) 91 % of control; (dose: 100.0 mg/kg/injection, schedule: Q01DX009 (ip), vehicle: saline) 89 % of control; (dose: 200.0 mg/kg/injection, schedule: Q01DX009 (ip), vehicle: saline) 92 % of control.
In the case of `[Cl][Pt+2][Cl].[NH-]C1CCCC2CCC[N-]C12` (stereo not drawn), the T/C reads like this: under setting [3], 154 % of control; under setting [4], 174 % of control and 184 % of control; (dose: 400.0 mg/kg/injection, schedule: Q01DX009 (ip), vehicle: saline with Tween-80) 176 % of control.
Regarding `CC1CN1C1=C(F)C(=O)C(N2CC2C)=C(F)C1=O` (stereo not drawn), the T/C by setting is: (dose: 1.56 mg/kg/injection, schedule: Q01DX009 (ip), vehicle: Klucel (hydroxypropylcellulose) (HPC)) 104 % of control; (dose: 3.12 mg/kg/injection, schedule: Q01DX009 (ip), vehicle: Klucel (hydroxypropylcellulose) (HPC)) 106 % of control and 110 % of control and 116 % of control; (dose: 6.25 mg/kg/injection, schedule: Q01DX009 (ip), vehicle: Klucel (hydroxypropylcellulose) (HPC)) 105 % of control and 123 % of control.
On to `COc1ccc2nc3cc(Cl)ccc3c(NCC(O)CNc3c4ccc(Cl)cc4nc4ccc(OC)nc34)c2n1`, for which the T/C by setting is: under setting [5], 92 % of control; under setting [6], 90 % of control; under setting [7], 90 % of control.
As for `Cc1[nH]nc2c(NCc3ccco3)ncnc12`, the T/C reads like this: (dose: 25.0 mg/kg/injection, schedule: Q04DX003 (ip), vehicle: saline) 98 % of control; (dose: 50.0 mg/kg/injection, schedule: Q04DX003 (ip), vehicle: saline) 104 % of control; (dose: 100.0 mg/kg/injection, schedule: Q04DX003 (ip), vehicle: saline) 101 % of control; (dose: 200.0 mg/kg/injection, schedule: Q04DX003 (ip), vehicle: saline) 95 % of control.
For `COC(=O)c1cc(-c2ccc(Cl)c(Cl)c2)[nH]c(=O)c1C#N`, the T/C reads like this: under setting [5], 100 % of control; under setting [6], 103 % of control; under setting [7], 94 % of control.
Consider `COc1cc(OC)c(/C=N/Nc2cc(C)nc3cc4c(cc23)OCO4)c(OC)c1`, for which the T/C runs as follows: (dose: 1.56 mg/kg/injection, schedule: Q01DX005 (ip), vehicle: Klucel (hydroxypropylcellulose) (HPC)) 106 % of control; (dose: 3.12 mg/kg/injection, schedule: Q01DX005 (ip), vehicle: Klucel (hydroxypropylcellulose) (HPC)) 97 % of control; (dose: 6.25 mg/kg/injection, schedule: Q01DX005 (ip), vehicle: Klucel (hydroxypropylcellulose) (HPC)) 102 % of control and 91 % of control; (dose: 12.5 mg/kg/injection, schedule: Q01DX005 (ip), vehicle: Klucel (hydroxypropylcellulose) (HPC)) 100 % of control and 87 % of control; (dose: 25.0 mg/kg/injection, schedule: Q01DX005 (ip), vehicle: Klucel (hydroxypropylcellulose) (HPC)) 103 % of control.
Take `O=C(O)CCCCC1SCC2NC(=O)NC21` (stereo not drawn): the T/C reads like this: under setting [3], 100 % of control; (dose: 100.0 mg/kg/injection, schedule: Q01DX009 (ip), vehicle: saline with Tween-80) 108 % of control; under setting [4], 108 % of control.
Take `Cc1ccccc1N1C(=O)C(=O)C(c2nc3ccccc3s2)C(=O)C1=O`: the T/C by setting is: under setting [5], 99 % of control; under setting [6], 98 % of control; under setting [7], 97 % of control.
As to `O=C1CS(=O)(=O)C(c2ccccc2)N1N1C(=O)CS(=O)(=O)C1c1ccccc1` (stereo not drawn), the T/C is 104 % of control (dose: 50.0 mg/kg/injection, schedule: Q01DX005 (ip), vehicle: saline with Tween-80); 104 % of control under setting [1]; 92 % of control under setting [2].
Turning to `COC1OC(CNCCO)C2OC(C)(C)OC12` (stereo not drawn), the T/C was 100 % of control (dose: 50.0 mg/kg/injection, schedule: Q01DX005 (ip), vehicle: saline + alcohol); 100 % of control (dose: 100.0 mg/kg/injection, schedule: Q01DX005 (ip), vehicle: saline + alcohol); 100 % of control (dose: 200.0 mg/kg/injection, schedule: Q01DX005 (ip), vehicle: saline + alcohol).
As for `COC(=O)[C@H]1C[C@@H](N)[C@H](O)[C@@H]1O`, the T/C (dose: 60.0 mg/kg/injection, schedule: Q01DX005 (ip), vehicle: saline) was 102 % of control; the T/C (dose: 120.0 mg/kg/injection, schedule: Q01DX005 (ip), vehicle: saline) was 101 % of control; the T/C (dose: 240.0 mg/kg/injection, schedule: Q01DX005 (ip), vehicle: saline) is 100 % of control.
Turning to `CC1=C(c2ccccc2)CS1(=O)=O`, the T/C runs as follows: (dose: 100.0 mg/kg/injection, schedule: Q04DX002 (ip), vehicle: saline with Tween-80) 101 % of control; (dose: 200.0 mg/kg/injection, schedule: Q04DX002 (ip), vehicle: saline with Tween-80) 99 % of control; (dose: 400.0 mg/kg/injection, schedule: Q04DX002 (ip), vehicle: saline with Tween-80) 110 % of control.
As to `O=C(CCc1cc2[nH]c1c(-c1ccccc1)c1nc(c(-c3ccccc3)c3ccc([nH]3)c(-c3ccccc3)c3nc(c2-c2ccccc2)C=C3)C=C1)NCCCn1ccnc1`, the T/C (dose: 50.0 mg/kg/injection, schedule: Q01DX001 (ip), vehicle: Klucel (hydroxypropylcellulose) (HPC)) was 99 % of control; the T/C (dose: 100.0 mg/kg/injection, schedule: Q01DX001 (ip), vehicle: Klucel (hydroxypropylcellulose) (HPC)) is 91 % of control; the T/C (dose: 200.0 mg/kg/injection, schedule: Q01DX001 (ip), vehicle: Klucel (hydroxypropylcellulose) (HPC)) is 91 % of control; the T/C (dose: 400.0 mg/kg/injection, schedule: Q01DX001 (ip), vehicle: Klucel (hydroxypropylcellulose) (HPC)) was 96 % of control.
Turning to `CCO/C=C1/N=C(c2cccc3ccccc23)OC1=O`, the T/C under setting [5] was 99 % of control, the T/C under setting [6] was 99 % of control and the T/C under setting [7] is 99 % of control.
Consider `Cn1nncc1NS(=O)(=O)c1ccc([N+](=O)[O-])cc1`, for which the T/C by setting is: (dose: 100.0 mg/kg/injection, schedule: Q01DX001 (ip), vehicle: saline with Tween-80) 107 % of control; (dose: 200.0 mg/kg/injection, schedule: Q01DX001 (ip), vehicle: saline with Tween-80) 115 % of control; (dose: 400.0 mg/kg/injection, schedule: Q01DX001 (ip), vehicle: saline with Tween-80) 98 % of control.

For the origin of these results see PubChem BioAssay AID330 (DTP/NCI, 2004).
